Paper PMC10252837, “A Novel Time-Resolved Fluorescence Resonance Energy Transfer Assay for the Discovery of Small-Molecule Inhibitors of HIV-1 Tat-Regulated Transcription” (International Journal of Molecular Sciences, 2023)
Where two headings read alike, the source gives them in different places.

How the values were obtained:
TZM-bl cells = experiment: in vitro; settings: TZM-bl cells
Procedure: (§1) (A) (Upper panel) Doxycycline (Dox)-inducible Tat-expressing bl-DTR cells cultured in 96-well plates treated with two-fold serial dilutions of each compound in the presence of Dox (50 ng/mL). At 24 h after treatment, the activity of firefly luciferase (F-Luc), indicating Tat activity, was determined as described in the Materials and Methods section. (Bottom panel) TZM-bl cells were treated with two-fold serial dilutions of the indicated compound and then infected with the HIV-1NL4-3 strain at a multiplicity of infection (MOI) of 1. At 24 h after infection, the viral infectivity and cell viability were determined as described in the Materials and Methods section. […] (B) 2 × 10^5 TZM-bl cells growing in 6-well plates were infected with HIV-1 (MOI = 1), transfected with a Tat-expressing plasmid (2 μg) or treated with PMA ([…]) upon indicated compounds at indicated concentrations, respectively. At 24 h after treatment, LTR promoter activity was determined via a Bright-Glo Luciferase Assay Kit. The relative activities are represented as the mean ± SD (n = 3) compared with the DMSO vesicle. (C) The biotinylated TAR RNA (2 nM) was incubated with ARM peptide (100 nM) in the presence of increasing amounts of the hit compound and separated on a 3–12% native polyacrylamide gel. The mobility of biotinylated TAR RNA was detected by chemiluminescence.
To determine the inhibitory effect of hit compounds on HIV-1 infection, we used TZM-bl cells (also referred to as JC53BL-13), which express HIV-1 receptors and contain the LTR-driven F-Luc gene controlled by HIV-1 infection, as described previously but with some minor modifications. Briefly, 1 × 10^4 TZM-bl cells cultured on 96-well plates were treated in triplicate wells with 1:2 serially diluted compounds at concentrations ranging from 0 to 12.5 µM. […] At 24 h after infection, the inhibitory effect of the hit compounds on infectivity was determined using the Bright-Glo Luciferase Assay Kit (Promega). The dose–response data are expressed as a relative percentage compared to the DMSO control (vehicle). The inhibitory effects of the hit compounds on HIV-1 replication were determined as previously described. […] After infection, the cells were treated with hit compounds at the indicated concentrations at 3–5 days after treatment, and the inhibitory effect of hit compounds on viral replication was determined by the titration of virions from the cell supernatant using a p24 […]™ Assay Kit (PerkinElmer) according to the manufacturer’s instructions. Cell viability was determined using resazurin-based PrestoBlue™ cell viability reagent (Thermo Fisher Scientific, Waltham, MA, USA) according to the manufacturer’s instructions. […]

[1] = system: Tat activity (Tat-induced viral transcription); experiment: microbe, parasite or virus in culture; format: cell-based, HIV-1; settings: for IC50: read-out: IC50 of Tat Activity
Procedure: as §1
The inhibitory effect of hit compounds on Tat-mediated transcription was determined using doxycycline (Dox)-inducible Tat-expressing TZM-bl cells that express the LTR-driven firefly luciferase (F-Luc) gene under the control of Tat upon Dox treatment, as described previously but with minor modifications. In brief, 1 × 10^4 of the cells were cultured in 96-well plates, treated with compounds at a concentration of 10 µM (in the second round of screening), and then treated with Dox (final concentration: 50 ng/mL). After 24 h, the inhibitory effect of the hit compounds on Tat activity was determined by measuring F-Luc activity using a Bright-Glo Luciferase Assay Kit (Promega, Madison, WI, USA). For the dose–response assay, cells cultured in 100 μL medium were treated with 50 μL of 1:2 serially diluted compounds at concentrations ranging from 0 to 12.5 µM and then treated with 50 μL of Dox (final concentration: 50 ng/mL). At 24 h post-treatment, the F-Luc activity was determined as described above. All luminescence assays were carried out in a SpectraMax Paradigm Microplate Reader (Molecular Devices, San Jose, CA, USA), and the data were expressed as a relative percentage (%) compared to the DMSO control (vehicle) in the presence of Dox. The experiments were performed in triplicate.

HIV-1NL4-3 = experiment: HIV-1 infectivity in TZM-bl cells (LTR-driven F-Luc); format: cell-based; settings: for IC50: read-out: IC50 of Infectivity
Procedure: as §1
To determine the inhibitory effect of hit compounds on HIV-1 infection, we used TZM-bl cells (also referred to as JC53BL-13), which express HIV-1 receptors and contain the LTR-driven F-Luc gene controlled by HIV-1 infection, as described previously but with some minor modifications. Briefly, 1 × 10^4 TZM-bl cells cultured on 96-well plates were treated in triplicate wells with 1:2 serially diluted compounds at concentrations ranging from 0 to 12.5 µM. Subsequently, the cells were infected with HIV-1NL4-3 virus obtained from the transfection of 293T cells at a multiplicity of infection (MOI) of 1. At 24 h after infection, the inhibitory effect of the hit compounds on infectivity was determined using the Bright-Glo Luciferase Assay Kit (Promega). The dose–response data are expressed as a relative percentage compared to the DMSO control (vehicle). The inhibitory effects of the hit compounds on HIV-1 replication were determined as previously described. Briefly, 4 × 10^5 PBMCs pre-activated with phytohemagglutinin M (PHA-M) were washed with fresh media and then infected with HIV-1NL4-3 or HIV-1AD8 at an MOI of 0.1 by spinoculation for 2 h. After infection, the cells were treated with hit compounds at the indicated concentrations at 3–5 days after treatment, and the inhibitory effect of hit compounds on viral replication was determined by the titration of virions from the cell supernatant using a p24 […]™ Assay Kit (PerkinElmer) according to the manufacturer’s instructions. Cell viability was determined using resazurin-based PrestoBlue™ cell viability reagent (Thermo Fisher Scientific, Waltham, MA, USA) according to the manufacturer’s instructions. The data are presented as relative percentages compared to the DMSO control (vehicle). The experiments were performed in triplicate.

HIV-1AD8 (R5-tropic) = experiment: HIV-1 replication assay in PBMCs (p24), HIV-1AD8; format: cell-based; settings: PHA-preactivated PBMCs, MOI 0.1, 72 h; 460-G06 at 12.5-100 nM
Procedure: (§2) Figure 6 Phytohemagglutinin-preactivated peripheral blood mononuclear cells were infected with HIV-1NL4-3 (A) or HIV-1AD8 (B) at an MOI of 0.1 for 2 h and then treated with compounds at indicated concentrations for 72 h. […] The data are expressed as the mean ± SD (n = 3). * p < 0.05 indicates a comparison with the cells treated with DMSO (vehicle). ARVs, anti-retroviral drugs; EFV, efavirenz; DOL, dolutegravir; AZT, azidothymidine.
(§3) The experiments were performed in triplicate.

HIV-1NL4-3 (X4-tropic) = experiment: HIV-1 replication assay in PBMCs (p24), HIV-1NL4-3; format: cell-based; settings: PHA-preactivated PBMCs, MOI 0.1, 72 h; 460-G06 at 12.5-100 nM
Procedure: as §2, §3

TAR RNA = experiment: RNA gel mobility shift assay (biotinylated TAR RNA and ARM peptide); format: binding, HIV-1; settings: 2 nM biotinylated TAR RNA, 100 nM ARM peptide
Procedure: To determine the inhibitory effect of hit compounds on the Tat (ARM)-TAR RNA interaction, a gel shift assay was carried out using the LightShift Chemiluminescent RNA EMSA Kit (Thermo Scientific) according to the manufacturer’s instructions, but with minor modifications suitable for our experiment. Briefly, 2 nM of 5′-biotinylated TAR RNA (nt 31) and 100 nM of ARM peptide were incubated with increasing amounts of hit compounds in the 1× REMSA binding buffer (10 mM HEPES pH 7.5, 10 mM MgCl2, 5 mM KCl, 1 mM DTT, and v/v 5 % glycerol) supplemented with 8 units/reaction of RNase OUT (Invitrogen) (final: 20 µL) at 20 °C for 20 min. Subsequently, the reaction was separated on a 3–12% native gradient PAGE gel. The RNA was then transferred to a nylon membrane to detect the mobility-shifted biotinylated TAR RNA using StAV-horseradish peroxidase conjugate. Chemiluminescence was detected using a GBox Chemi chemi-luminometer (Syngene, Fredrick, MD, USA).

[2] = system: Tat (ARM)-TAR RNA interaction; settings: 10-fold excess competitor, 50 nM analytes
Procedure: To test whether our assay is applicable for screening specific inhibitors of the Tat-TAR RNA interaction, inhibition assays were performed with known inhibitors of the Tat-TAR RNA interaction. […] A dose–response competition assay was conducted at inhibitor concentrations of 0–100 μM to determine their inhibitory curves in our assay. […] Additionally, a dose-responsive competition assay using RNA fragments was performed to validate the specificity of the assay.
Data are expressed as the mean ± SD (n = 3) compared to a control lacking an RNA competitor.
The indicated concentrations of ARM and Cy5-TAR RNA fragments were incubated in 20 μL of 1× LANCE ultra assay buffer in 384-well microtiter plates with or without inhibitor (competitor) for 30 min at 20 °C in the dark. […] The reaction was performed in a final volume of 25 μL. Small volumes of the reaction solution were added automatically using Assist-Plus (Integra Bioscience, Zisers, Switzerland). After adding all the assay components, the plates were sealed with a clear cover. The ARM-TAR RNA interaction signal was measured in an EnSight multimode plate reader (PerkinElmer) using the LANCE protocol of the time-resolved fluorescence (TRF) mode in the Kaleido software (PerkinElmer), according to the manufacturer’s protocol. Briefly, the excitation light was directed to the donor (Eu) from the Xenon flash lamp at 320 nm selected by an optical filter, and then, an integration time of 100 μs and a delay time of 70 μs were provided to remove short-lived background signals; subsequently, two emission lights were detected at 615 nm for the donor (Eu) and 665 nm for the acceptor (Cy5). The TRF was measured from the top using an excitation filter and emission monochromators in a single measurement mode. The TR-FRET output signal was expressed as the emission ratio of acceptor/donor (665/615 nm × 1000) fluorescence counts. The fold activity of the TR-FRET signal for ARM-TAR RNA interaction was calculated compared to the control reaction lacking the ARM peptide.

[3] = bl-DTR cells, Dox 50 ng/mL, 24 h, F-Luc, 0-12.5 μM
[4] = TZM-bl cells, HIV-1NL4-3 MOI 1, 24 h, 0-12.5 μM

Compound	dose response of Tat activity (F-Luc), in words ([1]; 0-12.5 μM, bl-DTR cells)	IC50 [1, 3] [µM]	IC50 (HIV-1NL4-3; [4]) [µM]	other results
Cc1ccc(Nc2cc3c(n[n+]([O-])n3CCCN3CCCCC3)c3c2C(=O)c2ccccc2C3=O)cc1 [Hit 464-A09, 6,11-Dioxo-3-(3-(piperidin-1-yl)propyl)-5-(p-tolylamino)-6,11-dihydro-3H-anthra[1,2-d][1,2,3]triazole 2-oxide]	gradual dose-responsive inhibitory effect on Tat activity	2.27 ± 0.518	2.03 ± 0.132	toxicity, in words (TZM-bl cells; 6.25 μM): sudden severe toxicity; CC50 (TZM-bl cells; concentration that reduces cell viability by 50%): 3.36 ± 0.16 µM; inhibitory effect on Tat, in words ([1]; 3.13 μM): strong inhibitory effect; inhibitory effect on HIV-1, in words (HIV-1NL4-3; 3.13 μM): strong inhibitory effect
Cc1nn2c(nc(NC3CCCN(C)C3)c3ccccc32)c1Cl (centres unmarked) [Hit 463-H08, 3-chloro-2-methyl-N-(1-methylpiperidin-3-yl)pyrazolo[1,5-a]quinazolin-5-amine]	gradual inhibition of F-Luc activity	–	–	inhibition of viral replication, in words (HIV-1AD8 (R5-tropic)): less inhibitory effect on viral replication; inhibition of viral replication, in words (HIV-1NL4-3 (X4-tropic)): less inhibitory effect on viral replication; Kd (TAR RNA): ~1000 µM; dissociation of ARM from TAR RNA, in words (TAR RNA): relatively less dissociation effect; IC50 ([1]; Human immunodeficiency virus 1, 24 h): 2.37 ± 0.16 µM; IC50 (HIV-1NL4-3; Human immunodeficiency virus 1, TZM-bl, 24 h): 8.05 ± 0.488 µM; SI (selectivity index) (HIV-1NL4-3; TZM-bl cells): >1.552
GISYGDKKDDQEERA [mt ARM]	–	–	–	TR-FRET signal in peptide/protein competition assay, in words [2]: neither mt ARM nor BSA affected their interaction signals
Cc1ccc(-c2csc3ncnc(NCCCc4n[nH]c(N)c4C#N)c23)cc1 [Hit 463-B11, 5-Amino-3-(3-(5-p-tolylthieno[2,3-d]pyrimidin-4-ylamino)propyl)-1H-pyrazole-4-carbonitrile]	gradual dose-responsive inhibitory effect on Tat activity	6.82 ± 1.88	5.03 ± 0.31	–
CC(C)C(CNc1nc(-c2ccsc2)nc2ccccc12)N1CCN(C)CC1 (centres unmarked) [Hit 461-H04, N-(3-Methyl-2-(4-methylpiperazin-1-yl)butyl)-2-(thiophen-3-yl)quinazolin-4-amine]	gradual dose-responsive inhibitory effect on Tat activity	10.1 ± 2.73	–	–
O=C(O)C1CCCc2sc(C=Cc3cc(Cl)c4c(c3)OCCO4)nc21 (centres unmarked) [Hit 458-F08, 2-(2-(8-Chloro-2,3-dihydrobenzo[b][1,4]dioxin-6-yl)vinyl)-4,5,6,7-tetrahydrobenzo[d]thiazole-4-carboxylic acid]	gradual dose-responsive inhibitory effect on Tat activity	–	1.29 ± 0.384	–
Cc1onc(-c2ccccn2)c1C(=O)Nc1ncc(C2CCNCC2)s1 [Hit 459-G07, 5-Methyl-N-(5-(piperidin-4-yl)thiazol-2-yl)-3-(pyridin-2-yl)isoxazole-4-carboxamide]	gradual dose-responsive inhibitory effect on Tat activity	3.93 ± 0.338	–	–
N=c1n(Cc2ccc(F)cc2F)c2ccccc2n1CC(O)Cn1c(-c2ccc(C(F)(F)F)cc2)noc1=O (centres unmarked) [Hit 460-F06, 4-(3-(3-(2,4-Difluorobenzyl)-2-imino-2,3-dihydro-1H-benzo[d]imidazol-1-yl)-2-hydroxypropyl)-3-(4-(trifluoromethyl)phenyl)-1,2,4-oxadiazol-5(4H)-one]	–	3.2 ± 0.438	–	–
